Test results published in patent EP0223385B1, “8-Azabicyclo[3,2,1]octane and 9-azabicyclo[3,3,1]nonane derivatives” (BEECHAM GROUP PLC, priority 1985, dated 1987).
Counter-ions that a name gives are not always drawn.

Tested on: von Bezold-Jarisch reflex evoked by 5-HT
Assay: Antagonism of the von Bezold-Jarisch reflex evoked by 5-HT in the anaesthetised rat
Type: in vivo
Details: iv, anaesthetised male rats, compounds given intravenously, dose reducing the 5-HT-evoked (usually 6µg/kg i.v.) heart rate response to 50% of control, read-out: ED₅₀
Description: The compounds were evaluated for antagonism of the von Bezold-Jarisch reflex evoked by 5-HT in the anaesthetised rat according to the following method:
Male rats 250-350g, were anaesthetised with urethane (1.25g/kg intraperitoneally) and blood pressure and heart rate recorded as described by Fozard J.R. et al., J. Cardiovasc. Pharmacol. 2, 229-245 (1980). A submaximal dose of 5-HT (usually 6µg/kg) was given repeatedly by the intravenous route and changes in heart rate quantified. Compounds were given intravenously and the concentration required to reduce the 5 HT-evoked response to 50% of the control response (ED₅₀) was then determined.

SMILES | ED50 [µg/kg]
CN1[C@@H]2CC[C@H]1C[C@@H](OC(=O)c1nn(C)c3ccccc13)C2 [Compound 1, 1-Methyl-3-indazolecarboxylic acid (endo-8-methyl-8-azabicyclo[3,2,1]oct-3-yl)ester monohydrochloride] | 1.4
CN1[C@@H]2CCC[C@H]1C[C@@H](NC(=O)c1nn(C)c3ccccc13)C2 [Compound 2, N-(Endo-9-methyl-9-azabicyclo[3,3,1]non-3-yl)-1-methylindazole-3-carboxamide monohydrochloride] | 0.7
